Source: US20110038885A1, “CHEMOKINE ANALOGS” (priority 2007, published 2011)
Bridge positions count the residues as written; N and C are the ends. Square brackets hold non-standard residues; d marks the D form. Peptide text beside a SMILES is read from it. Dap = NC[C@H](N)C(=O)O

Assays:
IL-8 = assay: In vitro chemotaxis, inhibition v IL-8; type: cell-based, human; parameters: concentration or dose not given beside the values
Procedure: To determine whether an agent inhibits a chemokine-induced activity, such as macrophage recruitment, varying amounts of the agent are mixed with cells in the presence of a known chemoattractant. For example, a range of known concentrations of an agent, e.g., a chemokine peptide, is incubated with a defined number (e.g., 10^4-10^6) of human THP-1 monocyte cells in individual wells of the top compartment of a trans-well plate. Chemokine, at a concentration known to cause significant migration of THP-1 cells in the trans-well migration assay, is placed in the lower compartment of a trans-well plate. Cells are then incubated at 37° C. for a period sufficient to allow migration, e.g., 4 hours. After incubation, the cells are gently removed from the top of the filter with a pipette, 20 μl of 20 mM EDTA in simple PBS is added into each top well, and incubated for 20 minutes at 4° C. The filter is carefully flushed with media using a gentle flow, and removed. A standard curve consisting of a two-fold dilution series of THP-1 cells (in 29 μl) is placed to accurately quantify the number of cells that have migrated. Migrated cells are stained with 3 μl of MTT stock dye solution which is added directly into each well (5 mg/ml in RPMI-1640 without phenol red) (Sigma Chemical Co., St. Louis, Mo., USA) and incubated at 37° C. for 4 hours. The media is carefully aspirated from each well, and the converted dye is solubilized by 20 μl of DMSO. Absorbance of converted dye is measured at a wavelength of 595 nm using an ELISA plate reader. The number of migrated cells in each well is then determined by interpolation of the standard curve (see also Imai et al., J. Biol. Chem., 272:15036, 1997). Any method suitable for counting cells can be used, for example, counting with a hemocytometer, incubation of the cells with MTT (see above), or FACS analysis. A negative control assay is also performed, using TGFβ or another non-chemokine chemoattractant (e.g., IL1β or TNFα). To assess whether the agent is cytotoxic, the same concentrations of agent are incubated with THP-1 cells. Agents which 1) are not cytotoxic at levels which inhibit migration, 2) are ineffective at inhibiting the negative control-induced migration, and 3) reduce or inhibit chemokine-induced THP-1 migration, are agents which fall within the scope of the invention.

MCP-1 = assay: In vitro chemotaxis (trans-well migration) v MCP-1; type: cell-based, human
Summary of the method: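 Human THP-1 monocytes (10^4-10^6) with agent at varying concentrations in upper trans-well chamber; IL-8 or MCP-1 in lower chamber at a migration-inducing concentration, 37° C for e.g. 4 hours. Migrated cells quantified by MTT (595 nm) against a THP-1 standard curve; cytotoxicity and non-chemokine chemoattractant controls run.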

Compound	EC50 (MCP-1) [µM]	v IL-8 inhibition (%) (IL-8)
CC[C@H](C)[C@@H]1NC(=O)[C@H](Cc2c[nH]c3ccccc23)NC(=O)[C@H](CCCCN)NC(=O)[C@@H](NC(=O)[C@H](CCC(N)=O)NC(=O)[C@H](CCCCN)NC(=O)[C@@H]2CCCN2C(=O)[C@H](CC(=O)O)NC(=O)[C@H](CC(C)C)NC(C)=O)CSSC[C@@H](C(N)=O)NC(=O)[C@H](CCC(N)=O)NC1=O [Example 23, Ac-Leu-Asp-Pro-Lys-Gln-c(Cys-Lys-Trp-Ile-Gln-Cys)-NH2] (Ac-LDPKQCKWIQC-NH2; disulfide 6-11)	> 1	13.4
CC[C@H](C)[C@@H]1NC(=O)[C@H](Cc2c[nH]c3ccccc23)NC(=O)[C@H](CCCCN)NC(=O)[C@H](CCC(N)=O)NC(=O)[C@H](CCCCN)NC(=O)[C@@H]2CCCN2C(=O)[C@H](CC(=O)O)NC(=O)[C@@H](CC(C)C)NC(=O)[C@@H](NC(C)=O)CSSC[C@@H](C(N)=O)NC(=O)[C@H](CCC(N)=O)NC1=O [Example 32, Ac-c(Cys-D-Leu-Asp-Pro-Lys-Gln-Lys-Trp-Ile-Gln-Cys)-NH2] (Ac-C[dL]DPKQKWIQC-NH2; disulfide 1-11)	> 1	8.7
CC[C@H](C)[C@@H]1NC(=O)[C@H](Cc2c[nH]c3ccccc23)NC(=O)[C@H](CCCCN)NC(=O)[C@H](CCC(N)=O)NC(=O)[C@H](CCCCN)NC(=O)[C@@H]2CCCN2C(=O)[C@H](CC(=O)O)NC(=O)[C@H](CC(C)C)NC(=O)[C@@H](N)CSSC[C@H](C(N)=O)NC(=O)[C@H](CCC(N)=O)NC1=O [Example 36, c(Cys-Leu-Asp-Pro-Lys-Gln-Lys-Trp-Ile-Gln-D-Cys)-NH2] (H-CLDPKQKWIQ[dC]-NH2; disulfide 1-11)	0.6	21.8
CC[C@H](C)[C@@H]1NC(=O)[C@H](Cc2c[nH]c3ccccc23)NC(=O)[C@H](CCCCN)NC(=O)[C@H](CCC(N)=O)NC(=O)[C@H](CCCCN)NC(=O)[C@@H]2CCCN2C(=O)[C@H](CC(=O)O)NC(=O)[C@H](CC(C)C)NC(=O)[C@H](N)CSSC[C@H](C(N)=O)NC(=O)[C@H](CCC(N)=O)NC1=O [Example 37, c(D-Cys-Leu-Asp-Pro-Lys-Gln-Lys-Trp-Ile-Gln-D-Cys)-NH2] (H-[dC]LDPKQKWIQ[dC]-NH2; disulfide 1-11)	> 1	−14.7
CC[C@H](C)[C@@H]1NC(=O)[C@H](Cc2c[nH]c3ccccc23)NC(=O)[C@H](CCCCN)NC(=O)[C@H](CCC(N)=O)NC(=O)[C@H](CCCCN)NC(=O)[C@@H](NC(=O)[C@@H]2CCCN2C(=O)[C@H](CC(=O)O)NC(=O)[C@@H](N)CC(C)C)CSSC[C@@H](C(N)=O)NC(=O)[C@H](CCC(N)=O)NC1=O [Example 38, Leu-Asp-Pro-c(Cys-Lys-Gln-Lys-Trp-Ile-Gln-Cys)-NH2] (H-LDPCKQKWIQC-NH2; disulfide 4-11)	> 1	−12
CC[C@H](C)[C@@H]1NC(=O)[C@H](Cc2c[nH]c3ccccc23)NC(=O)[C@H](CCCCN)NC(=O)[C@H](CCC(N)=O)NC(=O)[C@H](CCCCN)NC(=O)[C@@H]2CCCN2C(=O)[C@H](CC(=O)O)NC(=O)[C@H](CC(C)C)NC(=O)[C@H](N)CSSC[C@@H](C(N)=O)NC(=O)[C@H](CCC(N)=O)NC1=O [Example 39, c(D-Cys-Leu-Asp-Pro-Lys-Gln-Lys-Trp-Ile-Gln-Cys)-NH2] (H-[dC]LDPKQKWIQC-NH2; disulfide 1-11)	> 1	3.8

These reach a lower EC50 (MCP-1). Values come first.

EC50 (MCP-1) [µM]	Compound	v IL-8 inhibition (%) (IL-8)
0.2	CC[C@H](C)[C@@H]1NC(=O)[C@H](Cc2c[nH]c3ccccc23)NC(=O)[C@H](CCCCN)NC(=O)[C@H](CCC(N)=O)NC(=O)[C@H](CCCCN)NC(=O)[C@@H]2CCCN2C(=O)[C@H](CC(=O)O)NC(=O)[C@H](CC(C)C)NC(=O)[C@@H](NC(C)=O)CSSC[C@@H](C(N)=O)NC(=O)[C@@H](CCC(N)=O)NC1=O [Example 24, Ac-c(Cys-Leu-Asp-Pro-Lys-Gln-Lys-Trp-Ile-D-Gln-Cys)-NH2] (Ac-CLDPKQKWI[dQ]C-NH2; disulfide 1-11)	33.8
0.03	CC[C@@H](C)[C@H]1NC(=O)[C@H](Cc2c[nH]c3ccccc23)NC(=O)[C@H](CCCCN)NC(=O)[C@H](CCC(N)=O)NC(=O)[C@H](CCCCN)NC(=O)[C@@H]2CCCN2C(=O)[C@H](CC(=O)O)NC(=O)[C@H](CC(C)C)NC(=O)[C@@H](NC(C)=O)CSSC[C@@H](C(N)=O)NC(=O)[C@H](CCC(N)=O)NC1=O [Example 25, Ac-c(Cys-Leu-Asp-Pro-Lys-Gln-Lys-Trp-D-Ile-Gln-Cys)-NH2] (Ac-CLDPKQKW[dI]QC-NH2; disulfide 1-11)	96.9
0.02	CC[C@H](C)[C@@H]1NC(=O)[C@@H](Cc2c[nH]c3ccccc23)NC(=O)[C@H](CCCCN)NC(=O)[C@H](CCC(N)=O)NC(=O)[C@H](CCCCN)NC(=O)[C@@H]2CCCN2C(=O)[C@H](CC(=O)O)NC(=O)[C@H](CC(C)C)NC(=O)[C@@H](NC(C)=O)CSSC[C@@H](C(N)=O)NC(=O)[C@H](CCC(N)=O)NC1=O [Example 26, Ac-c(Cys-Leu-Asp-Pro-Lys-Gln-Lys-D-Trp-Ile-Gln-Cys)-NH2] (Ac-CLDPKQK[dW]IQC-NH2; disulfide 1-11)	94.9
0.03	CC[C@H](C)[C@@H]1NC(=O)[C@H](Cc2c[nH]c3ccccc23)NC(=O)[C@H](CCCCN)NC(=O)[C@H](CCC(N)=O)NC(=O)[C@@H](CCCCN)NC(=O)[C@@H]2CCCN2C(=O)[C@H](CC(=O)O)NC(=O)[C@H](CC(C)C)NC(=O)[C@@H](NC(C)=O)CSSC[C@@H](C(N)=O)NC(=O)[C@H](CCC(N)=O)NC1=O [Example 29, Ac-c(Cys-Leu-Asp-Pro-D-Lys-Gln-Lys-Trp-Ile-Gln-Cys)-NH2] (Ac-CLDP[dK]QKWIQC-NH2; disulfide 1-11)	92.0
0.05	CC[C@H](C)[C@@H]1NC(=O)[C@H](Cc2c[nH]c3ccccc23)NC(=O)[C@H](CCCCN)NC(=O)[C@H](CCC(N)=O)NC(=O)[C@H](CCCCN)NC(=O)[C@@H]2CCCN2C(=O)[C@@H](CC(=O)O)NC(=O)[C@H](CC(C)C)NC(=O)[C@@H](NC(C)=O)CSSC[C@@H](C(N)=O)NC(=O)[C@H](CCC(N)=O)NC1=O [Example 31, Ac-c(Cys-Leu-D-Asp-Pro-Lys-Gln-Lys-Trp-Ile-Gln-Cys)-NH2] (Ac-CL[dD]PKQKWIQC-NH2; disulfide 1-11)	95.8
0.25	CC[C@H](C)[C@@H]1NC(=O)[C@H](Cc2c[nH]c3ccccc23)NC(=O)[C@H](CCCCN)NC(=O)[C@H](CCC(N)=O)NC(=O)[C@H](CCCCN)NC(=O)[C@@H]2CCCN2C(=O)[C@H](CC(=O)O)NC(=O)[C@H](CC(C)C)NC(=O)[C@@H](NC(=O)[C@H](CCCCN)NC(C)=O)CSSC[C@@H](C(N)=O)NC(=O)[C@H](CCC(N)=O)NC1=O [Example 34, Ac-Lys-c(Cys-Leu-Asp-Pro-Lys-Gln-Lys-Trp-Ile-Gln-Cys)-NH2] (Ac-KCLDPKQKWIQC-NH2; disulfide 2-12)	75.7
0.05	CC[C@H](C)[C@@H]1NC(=O)[C@H](Cc2c[nH]c3ccccc23)NC(=O)[C@H](CCCCN)NC(=O)[C@H](CCC(N)=O)NC(=O)[C@H](CCCCN)NC(=O)[C@@H]2CCCN2C(=O)[C@H](CC(=O)O)NC(=O)[C@H](CC(C)C)NC(=O)[C@H](N)CSSC[C@@H](C(=O)N[C@@H](CN)C(N)=O)NC(=O)[C@H](CCC(N)=O)NC1=O [Example 35, c(D-Cys-Leu-Asp-Pro-Lys-Gln-Lys-Trp-Ile-Gln-Cys)-Dap-NH2] (H-[dC]LDPKQKWIQC[Dap]-NH2; disulfide 1-11)	91.9
